Patent US20230366875A1, “GPCR19-P2XN RECEPTOR COMPLEX AND USE THEREOF” (SEOUL NATIONAL UNIVERSITY R&DB FOUNDATION, priority 2020, published 2023)

Legend:
P2X7 receptor [1] = test: Ca++ mobilization by P2X7 receptor in microglia; assay type: cell-based, mouse; settings: BV2 cells, Aβ (2 μM)+HY209 (400 ng/ml) 1 hour, ATP (20 μM) or BzATP (40 μM)
P2X7 = P2X7 (Homo sapiens, UniProt Q99572); test: Potassium ion channel assay in PMA-differentiated U937 cells; settings: U937 cells differentiated by PMA (25 nM), BzATP (600 μM), HY209 (1 μM) 1 hour before BzATP
Procedure: Specifically, U937 cells were used to investigate whether the activity of ion channel was changed by the regulation of GPCR19. U937 cells were differentiated by treatment with PMA (25 nM). After that, a fluorescent probe was added and the reaction was conducted for 1 hour. Thereafter, the cells were treated with BzATP (600 μM), and the cumulative fluorescence value was measured using an ELISA instrument to investigate whether the ion channel was activated.

[2] = tested on: TNF-α, RANTES, MCP-1, IL-1β and IL-8; test: Cytokine measurement using cytometric bead array (CBA); assay type: cell-based; settings: 1 μM; compared with INT777, crisaborole, MCC950, A740003, GW791343, tofacitinib, prednisolone
Procedure: Specifically, cocktail beads were prepared by mixing fluorescent beads bound with antibodies to five types of inflammatory cytokines, TNF-α, RANTES, MCP-1, IL-1β and IL-8 to be confirmed. Next, 50 μl of the prepared cocktail beads, the prepared sample, and the standard sample were reacted at room temperature for 1 hour in a dark environment. […] As a positive control group, 1 μM of prednisolone, a corticosteroid was used. The reaction mixture was transferred to a new tube by the required amount so that the phycoerythrin (PE) detection reagent was 1 μl/sample, and washed with the washing buffer, the capture bead diluent was added so as to be contained by 50 μl per each sample through the calculation of volume, and the reaction was conducted at room temperature for 15 minutes in a dark environment. Next, 50 μl of the prepared PE detection reagent was added into the tube in which the cocktail beads, the prepared sample, and the standard sample were reacting, mixing was thoroughly performed, and then the reaction was further conducted for 2 hours. After all reactions were completed, 1 ml of washing buffer was added, centrifugation was performed at 200 g for 5 minutes, then the supernatant was removed, 300 μl of washing buffer was added, and then quantitative measurement of the 5 types of inflammatory cytokines was performed using a flow cytometer (CANTO II FACS, BD Biosciences, US).

IL-1β [3] = test: IL-1β ELISA of BMDM culture supernatant; assay type: cell-based, mouse; settings: BMDM cells
Procedure: The cells were treated with ATP (500 μm) or BzATP (300 μm) for an additional 1 hour before recovery of the culture supernatant of the sample. IL-1β concentration in the culture supernatant recovered was measured according to the manufacturer's procedure using the IL-1β ELISA kit (R & D Systems Minneapolis, MN, USA) (FIG. 4A).
IL-1β concentration in the culture supernatant recovered was measured according to the manufacturer's procedure using the IL-1β ELISA kit (R & D Systems Minneapolis, MN, USA) (FIG. 4B).

NLRP3 inflammasome [4] = test: Inflammasomal components in BMDM cells (immunostaining); assay type: cell-based, mouse; settings: LPS (10 ng/ml)+HY209 (400 ng/ml) 1 hour, BzATP (300 μm) 1 hour
Procedure: (§1) After that, in order to stain inflammasomal components, the cells were stained with anti-NLRP3 conjugated antibody (Abeam, Cambridge, UK) and anti-ASC Ab (Clone B-3, Santa Cruz Biotechnology, Inc. Dallas, Texas, USA) at 4° C. overnight, and then with Alexa Fluor 488-labeled or Alexa Fluor 532-labeled secondary conjugated antibody (Invitrogen, Carlsbad, CA, USA).

IL-1β [5] = test: IL-1β ELISA of HaCaT culture supernatant; assay type: cell-based, human; settings: HaCaT cells
Procedure: Thereafter, the IL-1β concentration was measured according to the manufacturer's procedure using the IL-113 ELISA kit (R&D Systems Minneapolis, MN, USA) (FIG. 3B).

P2X7 receptor [6] = test: Ca++ mobilization by P2X7 receptor in keratinocytes; assay type: cell-based, human; settings: HaCaT cells, IL-1β (10 ng/ml)+TNF-α (10 ng/ml), HY209 200, 400 and 800 ng/ml, 20 μM BzATP or ATP
P2X7 receptor [7] = target: T1, P2X7 receptor (Mus musculus, UniProt Q9Z1M0); test: Ca++ mobilization by P2X7 receptor in macrophages; assay type: cell-based; settings: BMDM cells, LPS (100 ng/ml)+HY209 (400 ng/ml) 1 hour, ATP (20 μM) or BzATP (40 μM)
T1 construct: endogenous in cells; host or cells: primary BMDM (bone marrow-derived macrophages)
Procedure: Specifically, BMDMs were obtained from three normal (wild-type, WT), GPCR19 KO or P2X7 KO mice. Then, the obtained BMDMs were treated with 20 μM ATP, attached to a glass coverslip, and then incubated in a physiological external solution consisting of NaCl 138 mM, KCl 5.6 mM, MgCl2 2 mM, HEPES 10 mM and pH 7.4 glucose 10 mM with 2 μM Fluo-4/AM in a 37° C. incubator for 30 minutes to observe intracellular Ca^++ mobilization. After that, the BMDMs were transferred to an open perfusion chamber to remove residual Fluo-4/AM, and the fluorescence level was measured using a fluorescence microscope (Nikon, Tokyo, Japan) under the conditions of excitation 494 nm and emission 506 nm. […]
After the treatment, Ca^++ mobilization measurement was started, and the cells were treated with ATP (20 μM) or BzATP (40 μM) in the presence of 2 mM CaCl2) and 0.5 mM MgCl2 50 seconds after the start of measurement. Intracellular Ca^++ mobilization was measured with […] using a fluorescence microscope in the same manner as in Example <2-1>, and graphed (FIG. 2D, left panels in first and second rows). After three independent experiments, the sum of the measured data was presented (FIG. 2D, right panels in first and second rows).

NLRP3 inflammasome [8] = test: Inflammasomal components in HaCaT cells (immunostaining); assay type: cell-based, human; settings: TNF-α (20 ng/ml)+HY209 (400 ng/ml) 3 hours, then DNCB (5 μg/ml) 24 hours
Procedure: as §1

P2X7, sequence (Q8TDU6 whole entry partner): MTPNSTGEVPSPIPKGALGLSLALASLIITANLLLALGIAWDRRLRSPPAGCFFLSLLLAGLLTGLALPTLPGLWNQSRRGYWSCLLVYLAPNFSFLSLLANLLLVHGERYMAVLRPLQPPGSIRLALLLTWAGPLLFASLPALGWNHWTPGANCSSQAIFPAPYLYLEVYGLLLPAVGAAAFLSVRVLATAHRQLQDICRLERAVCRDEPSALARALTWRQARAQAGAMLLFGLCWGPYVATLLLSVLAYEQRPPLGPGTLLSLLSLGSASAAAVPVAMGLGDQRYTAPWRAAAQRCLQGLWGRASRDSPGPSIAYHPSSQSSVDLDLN
P2X7, sequence (Q99572 whole entry): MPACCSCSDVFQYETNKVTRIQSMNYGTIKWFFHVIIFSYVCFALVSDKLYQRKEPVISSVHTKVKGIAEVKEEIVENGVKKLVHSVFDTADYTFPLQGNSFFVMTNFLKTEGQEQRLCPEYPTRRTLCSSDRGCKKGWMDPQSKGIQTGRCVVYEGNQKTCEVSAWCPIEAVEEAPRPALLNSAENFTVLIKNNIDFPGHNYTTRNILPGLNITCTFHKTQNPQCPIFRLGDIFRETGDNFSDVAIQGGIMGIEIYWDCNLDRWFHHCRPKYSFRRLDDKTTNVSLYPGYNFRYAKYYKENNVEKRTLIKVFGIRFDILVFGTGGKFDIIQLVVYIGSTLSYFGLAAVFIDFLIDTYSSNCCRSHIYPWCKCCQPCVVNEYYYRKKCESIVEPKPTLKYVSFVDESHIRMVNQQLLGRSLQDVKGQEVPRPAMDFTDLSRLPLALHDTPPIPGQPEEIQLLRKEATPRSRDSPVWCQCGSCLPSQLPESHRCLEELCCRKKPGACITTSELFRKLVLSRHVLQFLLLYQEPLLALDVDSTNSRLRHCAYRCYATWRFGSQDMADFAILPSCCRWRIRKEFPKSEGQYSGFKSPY
T1 sequence (Q80SS6 whole entry partner): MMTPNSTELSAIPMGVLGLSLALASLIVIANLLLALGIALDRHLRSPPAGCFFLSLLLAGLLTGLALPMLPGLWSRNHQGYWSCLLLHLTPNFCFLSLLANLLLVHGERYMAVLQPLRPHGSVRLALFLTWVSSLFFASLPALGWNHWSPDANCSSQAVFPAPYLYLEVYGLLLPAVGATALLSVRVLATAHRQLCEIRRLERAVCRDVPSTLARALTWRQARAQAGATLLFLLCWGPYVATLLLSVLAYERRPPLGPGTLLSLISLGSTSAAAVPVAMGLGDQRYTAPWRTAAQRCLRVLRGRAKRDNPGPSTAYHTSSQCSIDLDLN
T1 sequence (Q9Z1M0 whole entry): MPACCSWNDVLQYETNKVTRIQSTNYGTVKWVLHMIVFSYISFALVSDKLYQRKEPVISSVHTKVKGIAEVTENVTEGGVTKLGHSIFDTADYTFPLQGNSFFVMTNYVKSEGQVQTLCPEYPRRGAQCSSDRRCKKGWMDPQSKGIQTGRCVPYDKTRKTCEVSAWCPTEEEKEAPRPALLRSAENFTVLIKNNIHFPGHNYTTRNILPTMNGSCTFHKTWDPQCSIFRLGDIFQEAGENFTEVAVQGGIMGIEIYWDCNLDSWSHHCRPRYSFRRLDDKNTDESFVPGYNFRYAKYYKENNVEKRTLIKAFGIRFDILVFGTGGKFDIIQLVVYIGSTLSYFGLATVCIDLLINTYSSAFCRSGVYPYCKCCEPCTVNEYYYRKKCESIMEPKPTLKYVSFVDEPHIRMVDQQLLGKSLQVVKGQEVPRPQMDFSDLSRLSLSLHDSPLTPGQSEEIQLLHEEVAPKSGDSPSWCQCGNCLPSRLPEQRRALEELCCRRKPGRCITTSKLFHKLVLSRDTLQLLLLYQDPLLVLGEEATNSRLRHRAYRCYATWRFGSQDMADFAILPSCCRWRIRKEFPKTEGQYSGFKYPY

C[C@H](CCC(=O)NCCS(=O)(=O)O)[C@H]1CC[C@H]2[C@@H]3CC[C@@H]4C[C@H](O)CC[C@]4(C)[C@H]3C[C@H](O)[C@]12C [HY209, sodium taurodeoxycholate]
Ca++ mobilization increased under the influence of Aβ (P2X7 receptor [1]): significantly decreases
decrease of cumulative fluorescence value increased by BzATP (P2X7): 100%
inhibitory effect on five types of inflammatory cytokines produced by the inflammasome stimulation signal [2]: superior
increase in the production of IL-1β (IL-1β [3]; HY209 (400 ng/ml) after treatment with LPS+BzATP (posttreatment, 3 hours after LPS)): suppressed
increase in the production of IL-1β (IL-1β [3]; HY209 (400 ng/ml) before treatment with LPS+ATP (pretreatment, 1 hour before LPS)): suppressed
increase in the production of IL-1β (IL-1β [3]; LPS (10 ng/ml)+ATP (500 μm), HY209 0, 25, 100, 400 ng/ml): suppressed in a HY209 concentration-dependent manner
increase in the production of IL-1β (IL-1β [3]; LPS (10 ng/ml)+BzATP (300 μm), HY209 0, 25, 100, 400 ng/ml): suppressed in a HY209 concentration-dependent manner
increase in hASC expression (NLRP3 inflammasome [4]): suppressed
increase in hNLRP3-ASC oligomerization (NLRP3 inflammasome [4]): suppressed
increase in hNLRP3 expression (NLRP3 inflammasome [4]): suppressed
increase in the production of IL-1β (IL-1β [5]; TNF-α (20 ng/ml)+DNCB (5 μg/ml)+HY209 (400 ng/ml), 24 hours): suppressed
increase in the production of IL-1β (IL-1β [5]; TNF-α+DNCB+HY209 (400 ng/ml) 24 hours, then ATP 3 hours): suppressed
Ca++ mobilization increased under the influence of IL-1β and TNF-α (P2X7 receptor [6]): significantly decreases as the concentration of HY209 increases
Ca++ mobilization increased under the influence of LPS (P2X7 receptor [7]): significantly decreases
increase in hASC expression (NLRP3 inflammasome [8]): suppressed
increase in hNLRP3-ASC oligomerization (NLRP3 inflammasome [8]): suppressed
increase in hNLRP3 expression (NLRP3 inflammasome [8]): suppressed
